Assay results reported in patent EP4714938A1, “HDAC1/2 SELECTIVE INHIBITOR AND USE THEREOF” (Wigen Biomedicine Technology (Shanghai) Co., Ltd., priority 2023, dated 2024).
Like-named read-outs stand apart in the source and are kept apart here.

Experiments:
HDAC1 = HDAC1 (Homo sapiens, UniProt Q13547); assay: HDAC enzyme inhibitory activity, FRET method; format: biochemical
Procedure: (§1) The compounds of the present disclosure were assayed for enzyme inhibitory activity against various subtypes of HDAC enzymes by the FRET method. The various subtypes of HDAC enzymes were obtained either through purification or direct purchase of assay kits.
(§2) The specific method was as follows: The enzyme was added to a 384-well plate, and a reaction buffer was added to the control well. Serially diluted DMSO sample solutions were added to the reaction wells, and the plate was incubated at room temperature for 15 min. Then a chromogenic agent was added to stop the reaction, and fluorescence was generated. The fluorescence intensity was measured using an EnVision multi-label microplate reader (excitation: 355 nm, emission: 460 nm). The endpoint value was read after the color development reached stability. The inhibition IC50 of the compounds was calculated using GraphPad Prism4 software relative to DMSO.

HDAC3 = HDAC3 (Homo sapiens, UniProt O15379); assay: HDAC enzyme inhibitory activity, FRET method; format: biochemical
Procedure: as §1, §2

HDAC4 = HDAC4 (Homo sapiens, UniProt P56524); assay: HDAC enzyme inhibitory activity, FRET method; format: biochemical; conditions: Table 6; read-out: IC50 HDAC subtype 4
Procedure: as §1, §2

HDAC5 = HDAC5 (Homo sapiens, UniProt Q9UQL6); assay: HDAC enzyme inhibitory activity, FRET method; format: biochemical; conditions: Table 6; read-out: IC50 HDAC subtype 5
Procedure: as §1, §2

HDAC7 = target: T1, HDAC7 (Homo sapiens, UniProt Q8WUI4); assay: HDAC enzyme inhibitory activity, FRET method; format: biochemical; conditions: Table 6; read-out: IC50 HDAC subtype 7
T1 sequence (Q8WUI4 1-952): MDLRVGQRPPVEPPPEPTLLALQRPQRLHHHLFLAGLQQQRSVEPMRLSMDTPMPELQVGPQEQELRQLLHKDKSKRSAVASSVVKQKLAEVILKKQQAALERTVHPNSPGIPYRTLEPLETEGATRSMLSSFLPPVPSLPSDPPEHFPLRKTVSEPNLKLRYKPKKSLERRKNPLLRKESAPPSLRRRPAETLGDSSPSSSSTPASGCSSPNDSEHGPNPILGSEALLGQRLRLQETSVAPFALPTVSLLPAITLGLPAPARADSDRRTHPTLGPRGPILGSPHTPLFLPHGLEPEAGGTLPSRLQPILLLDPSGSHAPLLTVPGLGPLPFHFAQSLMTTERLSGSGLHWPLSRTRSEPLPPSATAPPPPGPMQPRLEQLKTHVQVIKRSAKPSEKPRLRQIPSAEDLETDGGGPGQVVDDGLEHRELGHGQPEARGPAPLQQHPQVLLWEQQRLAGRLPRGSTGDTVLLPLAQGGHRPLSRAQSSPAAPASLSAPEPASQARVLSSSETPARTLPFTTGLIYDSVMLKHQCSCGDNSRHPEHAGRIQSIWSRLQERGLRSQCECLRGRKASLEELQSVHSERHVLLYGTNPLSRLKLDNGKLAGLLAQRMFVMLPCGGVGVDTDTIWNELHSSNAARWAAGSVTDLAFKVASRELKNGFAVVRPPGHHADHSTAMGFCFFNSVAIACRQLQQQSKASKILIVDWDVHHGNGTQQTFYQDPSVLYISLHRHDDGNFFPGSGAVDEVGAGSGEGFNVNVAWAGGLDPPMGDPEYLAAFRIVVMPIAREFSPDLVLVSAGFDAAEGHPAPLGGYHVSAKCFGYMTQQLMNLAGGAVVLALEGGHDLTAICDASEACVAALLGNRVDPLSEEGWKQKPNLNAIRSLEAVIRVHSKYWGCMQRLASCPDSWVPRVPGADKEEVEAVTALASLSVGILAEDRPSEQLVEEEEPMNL
Procedure: as §1, §2

HDAC9 = HDAC9 (Homo sapiens, UniProt Q9UKV0); assay: HDAC enzyme inhibitory activity, FRET method; format: biochemical; conditions: Table 6; read-out: IC50 HDAC subtype 9
Procedure: as §1, §2

HDAC11 = target: T2, HDAC11 (Homo sapiens, UniProt Q96DB2); assay: HDAC enzyme inhibitory activity, FRET method; format: biochemical; conditions: Table 6; read-out: IC50 HDAC subtype 11
T2 sequence (Q96DB2 1-347): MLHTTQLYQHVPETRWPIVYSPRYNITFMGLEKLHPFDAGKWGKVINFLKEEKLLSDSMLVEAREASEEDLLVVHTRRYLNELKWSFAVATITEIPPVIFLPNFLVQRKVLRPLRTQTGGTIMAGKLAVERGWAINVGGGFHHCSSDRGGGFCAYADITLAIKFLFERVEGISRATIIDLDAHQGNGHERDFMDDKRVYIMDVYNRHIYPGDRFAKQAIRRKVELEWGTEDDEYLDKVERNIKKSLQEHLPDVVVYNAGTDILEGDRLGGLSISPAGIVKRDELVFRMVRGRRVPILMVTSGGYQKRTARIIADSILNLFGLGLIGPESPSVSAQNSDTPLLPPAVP
Procedure: as §1, §2

293T cell = assay: Inhibition of cell proliferation (CTG, intracellular ATP); format: cell-based; conditions: Homo sapiens, HEK-293T, 72 h
Procedure: Jurkat or 293T cells were seeded into a 96-well plate at 3000 cells/well. After overnight adherence culture, the serially diluted compound in DMSO was added. After 72 h, the intracellular ATP level was determined by CTG. The IC50 for the inhibition of cell proliferation by the compounds was calculated compared to the DMSO group. Table 7. Inhibitory activity of compounds of the present disclosure against Jurkat/293T cell proliferation (IC50, µM)

[1] = tested on: Mouse colon cancer MC38 cells; conditions: MC-38
Procedure: Female C57BL6N mice (aged 6 weeks, 18-22 g) were provided by Vital River Laboratory Animal Technology Co., Ltd. (China) and used one week after quarantine and acclimation. All animals were kept in a room at 23±2 °C with a relative humidity of 50±5%, artificial lighting was provided from 08:00 to 20:00 every day, and the air was exchanged 13-18 times per hour.
Mouse colon cancer MC38 cells were cultured conventionally in 1640 medium containing 10% fetal bovine serum in an incubator at 37 °C with 5% CO2. After being subcultured, the cells were collected when they reached the desired amount. The C57BL6N mice were subcutaneously injected with 2 × 10^6 MC38 cells on the right side to form tumors. After the tumors grew to about 100 mm^3, the animals were randomly grouped for administration. Tumor volumes were measured with a caliper on day 3, day 7, day 10, day 14, day 17, and day 21 after the administration. The ability of the compounds to inhibit tumor growth was evaluated according to the tumor growth inhibition rate (TGI) = 1 - (tumor volume on day 28 in treatment group - tumor volume on day 1 in treatment group)/(tumor volume on day 28 in control group - tumor volume on day 1 in control group). The toxicity of the compounds was evaluated according to the body weight and state of the mice.
The groups were as follows: 1) solvent control group; 2) PD-1+Reg group; 3) Compound 1 group; 4) Reference Compound group; 5) compound 1 (10mg/kg) and PD-1+Reg Combination group; 6) compound 1 (30mg/kg) and PD-1+Reg Combination group; 7) compound 1 (90mg/kg) and PD-1+Reg Combination group; 8) Reference Compound (10mg/kg) and PD-1+Reg Combination group; 9) Reference Compound (30mg/kg) and PD-1+Reg Combination group; 10) Reference Compound (90mg/kg) and PD-1+Reg Combination group, with 6 mice per group.
Reg represents Regorafenib PD-1 represents an anti-PD-1 antibody; IV represents administration via intravenous injection; PO represents oral administration; QD represents once-daily administration; QW represents once-weekly administration; CR represents complete remission (complete disappearance of the tumor after the dosing cycle is completed); PR represents partial response (tumor volume reduction exceeding 30% relative to the initial volume upon completion of the administration cycle); SD represents stable disease (tumor volume reduction or growth not exceeding 30% relative to the initial volume upon completion of the administration cycle); Died represents mouse died before the dosing cycle is completed; Administration period* is once daily (QD) for 10 consecutive days, followed by a 16-day off-treatment period; the once-weekly (QW) regimen is administered only on Day 1 and Day 8.

[2] = tested on: Mouse colon cancer CT-26 cells; conditions: for Tumor response, number of mice (CR/PR/SD): 6 mice per group; for TGI(%): QD for 14 consecutive days, PO
Procedure: Female BALB/c mice (aged 6 weeks, 18-22 g) were provided by Vital River Laboratory Animal Technology Co., Ltd. (China) and used one week after quarantine and acclimation. All animals were kept in a room at 23±2 °C with a relative humidity of 50±5%, artificial lighting was provided from 08:00 to 20:00 every day, and the air was exchanged 13-18 times per hour.
Mouse colon cancer CT-26 cells were cultured conventionally in 1640 medium containing 10% fetal bovine serum in an incubator at 37 °C with 5% CO2. After being subcultured, the cells were collected when they reached the desired amount. The BALB/c mice were subcutaneously injected with 2 × 10^5 CT-26 cells on the right side to form tumors. After the tumors grew to about 100 mm^3, the animals were randomly grouped for administration. Tumor volumes were measured with a caliper on day 3, day 7, day 10, day 14, day 17, and day 21 after the administration. The ability of the compounds to inhibit tumor growth was evaluated according to the tumor growth inhibition rate (TGI) = 1 - (tumor volume on day 28 in treatment group - tumor volume on day 1 in treatment group)/(tumor volume on day 28 in control group - tumor volume on day 1 in control group). The toxicity of the compounds was evaluated according to the body weight and state of the mice.

HDAC10 = target: T3, HDAC10 (Homo sapiens, UniProt Q969S8); assay: biochemical
T3 sequence (Q969S8 1-669): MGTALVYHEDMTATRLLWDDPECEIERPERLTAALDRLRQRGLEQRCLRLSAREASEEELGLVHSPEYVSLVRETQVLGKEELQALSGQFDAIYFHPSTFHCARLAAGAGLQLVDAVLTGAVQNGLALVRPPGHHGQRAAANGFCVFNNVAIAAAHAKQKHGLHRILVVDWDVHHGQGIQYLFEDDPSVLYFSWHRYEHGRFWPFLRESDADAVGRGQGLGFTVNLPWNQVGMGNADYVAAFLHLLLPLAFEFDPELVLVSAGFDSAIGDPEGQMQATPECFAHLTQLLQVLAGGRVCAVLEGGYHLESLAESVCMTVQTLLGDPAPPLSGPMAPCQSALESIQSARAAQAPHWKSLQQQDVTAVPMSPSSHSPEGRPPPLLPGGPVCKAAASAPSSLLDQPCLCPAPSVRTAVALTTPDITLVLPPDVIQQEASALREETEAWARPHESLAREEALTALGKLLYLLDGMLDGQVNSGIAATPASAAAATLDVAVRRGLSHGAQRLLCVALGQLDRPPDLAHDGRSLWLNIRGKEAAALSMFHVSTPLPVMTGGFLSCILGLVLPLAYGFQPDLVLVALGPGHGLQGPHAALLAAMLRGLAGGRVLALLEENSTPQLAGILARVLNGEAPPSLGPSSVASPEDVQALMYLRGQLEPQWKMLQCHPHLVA
Procedure: as §1, §2

HDAC1, sequence (Q13547 whole entry, species assumed): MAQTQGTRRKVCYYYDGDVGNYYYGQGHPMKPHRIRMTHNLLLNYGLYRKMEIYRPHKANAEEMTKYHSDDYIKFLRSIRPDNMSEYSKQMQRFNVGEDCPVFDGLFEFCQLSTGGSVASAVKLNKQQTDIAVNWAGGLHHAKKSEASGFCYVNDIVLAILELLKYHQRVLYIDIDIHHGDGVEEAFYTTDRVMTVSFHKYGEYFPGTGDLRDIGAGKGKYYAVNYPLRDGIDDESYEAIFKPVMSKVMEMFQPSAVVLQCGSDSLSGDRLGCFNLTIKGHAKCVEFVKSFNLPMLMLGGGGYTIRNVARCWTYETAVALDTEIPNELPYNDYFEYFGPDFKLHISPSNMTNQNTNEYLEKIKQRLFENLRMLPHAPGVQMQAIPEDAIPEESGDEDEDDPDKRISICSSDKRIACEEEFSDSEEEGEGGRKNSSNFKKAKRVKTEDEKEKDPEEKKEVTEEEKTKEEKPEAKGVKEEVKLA
HDAC3, sequence (O15379 whole entry, species assumed): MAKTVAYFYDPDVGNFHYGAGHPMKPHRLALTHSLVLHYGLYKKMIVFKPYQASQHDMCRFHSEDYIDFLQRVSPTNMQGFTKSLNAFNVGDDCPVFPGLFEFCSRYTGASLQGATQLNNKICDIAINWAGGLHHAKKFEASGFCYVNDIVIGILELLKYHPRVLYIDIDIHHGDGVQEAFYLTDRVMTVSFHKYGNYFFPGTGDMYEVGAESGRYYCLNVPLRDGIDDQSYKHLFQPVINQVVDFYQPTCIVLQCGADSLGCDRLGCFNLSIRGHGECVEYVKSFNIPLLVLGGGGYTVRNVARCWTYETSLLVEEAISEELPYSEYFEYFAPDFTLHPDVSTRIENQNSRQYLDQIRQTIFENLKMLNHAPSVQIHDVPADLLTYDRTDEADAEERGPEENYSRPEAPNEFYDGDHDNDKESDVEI
HDAC3, sequence (Q9Y618 395-489 partner limits assumed, species assumed): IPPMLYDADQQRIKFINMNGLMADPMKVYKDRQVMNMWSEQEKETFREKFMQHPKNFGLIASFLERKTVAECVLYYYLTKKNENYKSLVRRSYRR
HDAC5, sequence (Q9UQL6 whole entry, species assumed): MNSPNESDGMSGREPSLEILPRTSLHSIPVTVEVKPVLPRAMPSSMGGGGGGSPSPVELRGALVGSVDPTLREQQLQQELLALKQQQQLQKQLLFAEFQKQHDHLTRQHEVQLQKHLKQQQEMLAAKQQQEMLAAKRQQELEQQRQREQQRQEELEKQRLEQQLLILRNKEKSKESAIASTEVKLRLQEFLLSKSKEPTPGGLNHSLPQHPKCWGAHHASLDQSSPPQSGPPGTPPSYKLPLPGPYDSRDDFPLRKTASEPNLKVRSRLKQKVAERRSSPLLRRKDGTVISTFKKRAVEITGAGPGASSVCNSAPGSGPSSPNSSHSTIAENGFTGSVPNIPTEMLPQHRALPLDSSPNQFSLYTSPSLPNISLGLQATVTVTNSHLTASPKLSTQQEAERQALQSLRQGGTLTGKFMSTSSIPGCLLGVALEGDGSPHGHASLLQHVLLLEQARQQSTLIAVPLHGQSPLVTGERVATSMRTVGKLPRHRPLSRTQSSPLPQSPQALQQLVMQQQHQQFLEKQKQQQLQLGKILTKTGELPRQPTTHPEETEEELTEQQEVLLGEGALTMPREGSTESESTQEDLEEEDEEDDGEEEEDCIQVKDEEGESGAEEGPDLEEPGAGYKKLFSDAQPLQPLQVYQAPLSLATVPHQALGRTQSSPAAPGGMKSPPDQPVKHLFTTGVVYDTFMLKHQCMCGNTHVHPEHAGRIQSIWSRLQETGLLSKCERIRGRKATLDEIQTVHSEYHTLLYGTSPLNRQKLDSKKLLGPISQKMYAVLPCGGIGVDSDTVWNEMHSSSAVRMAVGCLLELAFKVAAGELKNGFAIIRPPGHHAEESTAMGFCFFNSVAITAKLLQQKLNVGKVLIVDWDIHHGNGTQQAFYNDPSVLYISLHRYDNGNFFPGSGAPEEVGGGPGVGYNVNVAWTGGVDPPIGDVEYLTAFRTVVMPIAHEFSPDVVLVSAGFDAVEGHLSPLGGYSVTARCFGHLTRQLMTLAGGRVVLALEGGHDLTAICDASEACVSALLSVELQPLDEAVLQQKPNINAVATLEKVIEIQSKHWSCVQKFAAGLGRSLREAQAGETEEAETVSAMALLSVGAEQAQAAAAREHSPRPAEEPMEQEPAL
HDAC9, sequence (Q9UKV0 whole entry, species assumed): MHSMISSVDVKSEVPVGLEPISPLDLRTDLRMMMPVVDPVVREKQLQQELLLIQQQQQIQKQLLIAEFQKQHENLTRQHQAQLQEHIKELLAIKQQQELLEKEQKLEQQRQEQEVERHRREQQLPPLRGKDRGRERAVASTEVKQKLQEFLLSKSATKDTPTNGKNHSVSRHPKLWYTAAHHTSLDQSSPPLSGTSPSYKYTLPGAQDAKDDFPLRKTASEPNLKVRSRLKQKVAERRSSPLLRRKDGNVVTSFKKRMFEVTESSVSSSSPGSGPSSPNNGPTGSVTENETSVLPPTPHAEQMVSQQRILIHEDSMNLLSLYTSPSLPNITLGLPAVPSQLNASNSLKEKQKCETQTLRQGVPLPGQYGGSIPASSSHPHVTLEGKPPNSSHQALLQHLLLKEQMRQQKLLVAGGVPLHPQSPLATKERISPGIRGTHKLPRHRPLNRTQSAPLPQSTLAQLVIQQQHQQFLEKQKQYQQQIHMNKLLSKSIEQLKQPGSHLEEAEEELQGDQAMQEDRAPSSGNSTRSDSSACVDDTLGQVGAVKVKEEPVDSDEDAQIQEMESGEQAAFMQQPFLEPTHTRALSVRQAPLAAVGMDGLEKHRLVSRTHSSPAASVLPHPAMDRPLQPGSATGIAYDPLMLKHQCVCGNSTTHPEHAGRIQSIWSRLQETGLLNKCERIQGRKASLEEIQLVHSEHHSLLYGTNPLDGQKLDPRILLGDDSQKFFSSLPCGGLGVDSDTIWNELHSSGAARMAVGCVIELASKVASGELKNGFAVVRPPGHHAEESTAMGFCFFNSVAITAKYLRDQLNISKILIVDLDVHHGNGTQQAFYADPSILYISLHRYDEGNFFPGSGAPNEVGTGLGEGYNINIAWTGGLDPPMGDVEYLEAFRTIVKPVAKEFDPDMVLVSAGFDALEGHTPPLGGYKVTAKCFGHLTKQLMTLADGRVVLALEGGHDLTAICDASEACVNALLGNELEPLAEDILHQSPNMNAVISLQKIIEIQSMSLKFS
HDAC4, sequence (P56524 whole entry, species assumed): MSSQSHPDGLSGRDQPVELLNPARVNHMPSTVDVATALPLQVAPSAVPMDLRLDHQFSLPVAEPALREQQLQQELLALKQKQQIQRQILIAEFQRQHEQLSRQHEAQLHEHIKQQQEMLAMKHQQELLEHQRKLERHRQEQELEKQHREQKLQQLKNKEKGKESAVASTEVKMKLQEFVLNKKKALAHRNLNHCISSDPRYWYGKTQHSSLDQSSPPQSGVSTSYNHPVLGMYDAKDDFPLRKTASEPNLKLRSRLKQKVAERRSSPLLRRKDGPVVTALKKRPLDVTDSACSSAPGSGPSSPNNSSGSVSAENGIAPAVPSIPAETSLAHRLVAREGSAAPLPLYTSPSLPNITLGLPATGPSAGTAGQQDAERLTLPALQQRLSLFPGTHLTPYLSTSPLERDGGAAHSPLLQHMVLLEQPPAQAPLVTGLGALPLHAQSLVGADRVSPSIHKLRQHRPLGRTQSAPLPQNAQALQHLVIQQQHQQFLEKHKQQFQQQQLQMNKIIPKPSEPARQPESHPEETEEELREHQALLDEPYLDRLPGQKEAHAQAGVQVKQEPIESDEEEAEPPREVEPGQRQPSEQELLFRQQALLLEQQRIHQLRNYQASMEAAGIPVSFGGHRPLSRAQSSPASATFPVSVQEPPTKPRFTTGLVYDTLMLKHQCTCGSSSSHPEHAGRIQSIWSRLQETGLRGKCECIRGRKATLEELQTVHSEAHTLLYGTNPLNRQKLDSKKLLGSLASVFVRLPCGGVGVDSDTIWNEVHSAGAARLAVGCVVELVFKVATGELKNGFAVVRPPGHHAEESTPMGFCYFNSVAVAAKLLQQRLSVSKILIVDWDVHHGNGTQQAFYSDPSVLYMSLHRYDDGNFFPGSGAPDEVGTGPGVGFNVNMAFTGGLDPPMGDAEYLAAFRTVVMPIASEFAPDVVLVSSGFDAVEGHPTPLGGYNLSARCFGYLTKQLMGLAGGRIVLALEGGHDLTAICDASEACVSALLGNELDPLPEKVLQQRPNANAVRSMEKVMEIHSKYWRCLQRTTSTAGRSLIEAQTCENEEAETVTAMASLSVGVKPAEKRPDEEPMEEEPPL

Work on `CS(C)(=O)=Nc1ccc(C(=O)Nc2cc(-c3ccc(F)cc3)ccc2N)cc1` [Compound 1, N-(4-Amino-4'-fluoro-[1,1'-biphenyl]-3-yl)-4-((dimethyl(oxo)-1^λ-6-sulfaneylidene)amino)benzamide] yielded an IC50 (HDAC1; Table 4, read-out: IC50 HDAC1) of less than 0.5 µM, an IC50 (HDAC1; Table 5, read-out: IC50 HDAC1) of less than 0.03 µM and an IC50 (HDAC1; Table 6, read-out: IC50 HDAC subtype 1) of 0.0265 µM. It also gave an IC50 (HDAC3; Table 4, read-out: IC50 HDAC3) greater than 5 µM, an IC50 (HDAC3; Table 5, read-out: IC50 HDAC3) greater than 3 µM and an IC50 (HDAC3; Table 6, read-out: IC50 HDAC subtype 3) of 5.51 µM. It also gave an IC50 (HDAC4) greater than 30 µM, an IC50 (HDAC5) greater than 30 µM and an IC50 (HDAC7) greater than 30 µM. For the same molecule, the IC50 (HDAC9) was greater than 30 µM, the IC50 (HDAC11) was greater than 30 µM and the IC50 (293T cell) was greater than 10 µM. The “Change in body weight(%)” value ([1]; monotherapy 90 mg/kg QD PO) was 11.08 ± 1.08%, the “Tumor response, number of mice (CR/PR/SD)” value (“Tumor response … (CR/PR/SD)” below) ([1]; monotherapy 90 mg/kg QD PO, CR complete remission, PR partial response, SD stable disease, 6 mice per group) was 5CR and the “TGI(%)” value ([1]; monotherapy 90 mg/kg, QD for 10 consecutive days, PO) was 100.54%. For the same molecule, the “complete tumor regression, % of mice” value ([1]; monotherapy group (5/6)) was 83.3%, the “Change in body weight(%)” value ([2]; monotherapy 30 mg/kg QD PO) was 1.13+3.79% and the “Tumor response … (CR/PR/SD)” value ([2]; monotherapy 30 mg/kg QD PO) was 1PR. For the same molecule, the “TGI(%)” value ([2]; monotherapy 30 mg/kg) was 38.57%, the “Change in body weight(%)” value ([2]; monotherapy 90 mg/kg QD PO) was -10.53+7.1% and the “Tumor response … (CR/PR/SD)” value ([2]; monotherapy 90 mg/kg QD PO) was 1PR+1SD. The “TGI(%)” value ([2]; monotherapy 90 mg/kg) was 88.35% and the IC50 (HDAC10) was 0.0222 µM.
